In test [1] the test system is mouse hepatic fibrosis model induced by CCl4. The experiment in a line: Mouse hepatic fibrosis model induced by carbon tetrachloride (CCl4). It is filed as in vivo. To be noted: gavage 5 mg/kg once a day, 6 weeks. On the procedure: Mouse hepatic fibrosis model: male C577BL/6 mice (8-week old) were used with 8 in each group and were injected intra-abdominally with 0.2 ml (diluted by olive oil) of 10% CCl4 twice a week; and a control group was injected intra-abdominally with an equal volume of olive oil for 18 consecutive weeks.

Test [2] concerns chronic lymphocytic leukemia. To be noted: phase II clinical trials of chronic lymphocytic leukemia; cited from earlier work.

Take `c1cn2cc(-c3ccc4cn[nH]c4c3)nc(Nc3ccc(N4CCOCC4)cc3)c2n1` [GS-9973, Entospletinib]: the “generation of hepatic collagen (Sirius Red staining)” value in test [1] is recorded as “remarkably inhibit”. For the same compound, the effective rate in test [2] is on record as 91%.
